Results: the supplement of paper PMC5908809

Assays:
[1] = system: normal NK cells expanded with K562-aAPC; experiment: percent inhibition of viability; higher = more inhibition; conditions: 72 h, IL-2 2.5 ng/mL
Protocol: (§1)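 Drug sensitivity and resistance testing on K562-aAPC-expanded normal NK cells: 5 concentrations (10-fold steps over a 10,000-fold range), 72 h at 37 °C, viability by CellTiter-Glo normalised to DMSO and benzethonium chloride controls; DSS from the fitted curve.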

[2] = system: DERL-7 (IL-2 2.5 ng/mL); experiment: as above; conditions: 72 h
[3] = system: IMC-1 (IL-2 20 ng/mL); experiment: as above; conditions: 72 h
[4] = system: KAI3 (IL-2 2.5 ng/mL); experiment: as above; conditions: 72 h
[5] = system: KHYG-1 (IL-2 2.5 ng/mL); experiment: as above; conditions: 72 h
[6] = system: NK-92 (IL-2 2.5 ng/mL); experiment: as above; conditions: 72 h
[7] = system: NK-YS (IL-2 2.5 ng/mL); experiment: as above; conditions: 72 h
[8] = system: NKL (IL-2 2.5 ng/mL); experiment: as above; conditions: 72 h
[9] = system: SNK-6 (IL-2 2.5 ng/mL); experiment: as above; conditions: 72 h
[10] = system: YT (IL-2 2.5 ng/mL); experiment: as above; conditions: 72 h
[11] = system: normal primary NK cells, pool 1 (3 donors) (IL-2 2.5 ng/mL); experiment: as above; conditions: 72 h
[12] = system: normal primary NK cells, pool 1 (3 donors), resting (IL-2 0 ng/mL); experiment: as above; conditions: 72 h
[13] = system: normal primary NK cells, pool 2 (3 donors) (IL-2 2.5 ng/mL); experiment: as above; conditions: 72 h
[14] = system: normal primary NK cells, pool 3 (3 donors) (IL-2 2.5 ng/mL); experiment: as above; conditions: 72 h
[15] = system: normal NK cells expanded with K562-aAPC; experiment: drug sensitivity score (DSS) (DSS units); higher = more sensitive; extreme values may be limits of the assay; conditions: 72 h; IL-2 2.5 ng/mL
Protocol: as §1

[16] = system: DERL-7 (IL-2 2.5 ng/mL); experiment: as above; conditions: 72 h
[17] = system: IMC-1 (IL-2 20 ng/mL); experiment: as above; conditions: 72 h
[18] = system: KAI3 (IL-2 2.5 ng/mL); experiment: as above; conditions: 72 h
[19] = system: KHYG-1 (IL-2 2.5 ng/mL); experiment: as above; conditions: 72 h
[20] = system: NK-92 (IL-2 2.5 ng/mL); experiment: as above; conditions: 72 h
[21] = system: NK-YS (IL-2 2.5 ng/mL); experiment: as above; conditions: 72 h
[22] = system: NKL (IL-2 2.5 ng/mL); experiment: as above; conditions: 72 h
[23] = system: SNK-6 (IL-2 2.5 ng/mL); experiment: as above; conditions: 72 h
[24] = system: YT (IL-2 2.5 ng/mL); experiment: as above; conditions: 72 h
[25] = system: normal primary NK cells, pool 1 (3 donors) (IL-2 2.5 ng/mL); experiment: as above; conditions: 72 h
[26] = system: normal primary NK cells, pool 1 (3 donors), resting (IL-2 0 ng/mL); experiment: as above; conditions: 72 h
[27] = system: normal primary NK cells, pool 2 (3 donors) (IL-2 2.5 ng/mL); experiment: as above; conditions: 72 h
[28] = system: normal primary NK cells, pool 3 (3 donors) (IL-2 2.5 ng/mL); experiment: as above; conditions: 72 h

CN[C@@H](C)C(=O)N[C@H](C(=O)N1CCC[C@H]1c1nc(C(=O)c2ccc(F)cc2)cs1)C1CCCCC1 [LCL161] (max concentration tested 25000 nM)
percent inhibition of viability [%]
Conditions	2.5 nM	25 nM	250 nM	2500 nM	25000 nM
[1]	3.9	9.45	17.1	42	71.6
[2]	3.1	13	11.3	36.6	64.2
[3]	-0.09	4.35	9.97	0.82	31.3
[4]	-3.88	-6.89	-0.05	26.9	67.2
[5]	-3.69	-2.27	43.7	87.9	86.8
[6]	-9.41	4.44	14.3	35.9	87.5
[7]	-6.78	-9.82	-8.28	-8.9	20.8
[8]	-0.58	12.2	1.43	5.86	46.8
[9]	9.58	4.06	-3.23	-1.7	42.3
[10]	4.24	0.05	5.12	15.8	49.9
[11]	-2.53	-6.03	25.8	58	91
[12]	-36.7	-17.7	-2.19	43.8	88.3
[13]	-10.3	4.59	24.6	55.9	80.5
[14]	-5.71	1.98	19.5	51.1	75.2

Conditions	drug sensitivity score
[15]	10.4
[16]	8.62
[17]	1.5
[18]	7.35
[19]	21.5
[20]	9.07
[21]	0.39
[22]	3.42
[23]	1.99
[24]	4.58
[25]	14
[26]	10.4
[27]	13.6
[28]	12

C[C@]12O[C@H](C[C@]1(O)CO)n1c3ccccc3c3c4c(c5c6ccccc6n2c5c31)CNC4=O [Lestaurtinib] (max concentration tested 1000 nM)
percent inhibition of viability [%]
Conditions	0.1 nM	1 nM	10 nM	100 nM	1000 nM
[1]	0.88	0.03	29	96.5	95.9
[2]	6.54	3.47	17.9	85.4	99.6
[3]	-6.9	-5.94	-22.2	51.8	98.9
[4]	-0.38	3.13	35.9	86.4	76.4
[5]	-2.95	1.85	23.3	99.3	98.2
[6]	-0.14	-6.28	7.06	76.2	82.7
[7]	-0.02	0.67	6.21	48.1	87.8
[8]	-13.1	-12.9	13.3	71.2	80.6
[9]	0.62	7.99	4.23	64.6	73.7
[10]	-2.5	-0.06	3.18	55.1	91.6
[11]	-8.02	-1.5	10.2	76	75.2
[12]	4.88	-1.99	-2.95	26	18.6
[13]	-7.68	3.05	13.7	69.3	73
[14]	-8.42	-14	-3.13	65.2	72.3

Conditions	drug sensitivity score
[15]	21.6
[16]	17.9
[17]	11.8
[18]	20.1
[19]	21.5
[20]	15
[21]	10.6
[22]	14.8
[23]	12.5
[24]	11.7
[25]	15.6
[26]	3.91
[27]	14.7
[28]	11.9
